In US7910621B2, “Small molecule antagonists of XIAP family proteins” (The Regents of the University of Michigan, priority 2004, dated 2011):

What was measured:
[1] = system: PC-3 prostate cancer cells; assay: Annexin V-FITC apoptosis assay by flow cytometry, PC-3; format: cell-based, human; conditions: 48 hours
Method: FIG. 6 presents induction of apoptosis by embelin in PC-3 prostate cancer cells. 1×10^6 PC-3 cells per well in 6-well culture plates were treated with embelin for 48 hours, stained with Annexin V-FITC and propidium iodide for apoptosis by flow cytometry. The results are shown as percent of Annexin V-FITC positive apoptotic cells (n=3).
(§1) PC-3 cells, 1×10^6 cells per well in 6-well culture plates, were treated in triplicate with various concentrations of embelin for 24 or 48 hours, then trypsinized and washed with PBS. For Jurkat cells, 1×10^6 Jurkat-XIAP or Jurkat-Vec cells per well in 6-well culture plates, were treated with etoposide, embelin, or both for 15 hours. For flow cytometry apoptosis assay, cells were stained with Annexin V-FITC and propidium iodide using the Annexin-V-FLUOS Kit (Roche) according to the manufacturer's instruction. The fluorescence of Annexin V-FITC and propidium iodide of individual cells was analyzed by FACScan. The results are shown as percent of Annexin V-FITC positive apoptotic cells.

[2] = system: caspase-9 in normal PrEC cells; assay: Activation of caspase-9 assay, PrEC; format: cell-based, human; conditions: compared to vehicle treated control cells
Method: FIGS. 7A and 7B show the activation of caspase-9 by embelin in PC-3 prostate cancer cells and its selectivity in normal prostate epithelial cells. 1×10^6 PC-3 or PrEC cells per well in 6-well culture plates were treated with embelin for 48 hours. An additional control was prepared by adding the pan-caspase inhibitor Z-VAD-FMK (2 uM final) 5 min before adding embelin, to inhibit caspase activation. The cells were collected and stained of active caspase-9 by CaspGLOW Red Active Caspase-9 Staining Kit, and analyzed by flow cytometry in PI channel.
1×10^6 PC-3 cells per well in 6-well culture plates, were treated with various concentrations of embelin, or the same amount of solvent DMSO as vehicle control, for up to 48 hr. An additional control was prepared by adding the pan-caspase inhibitor Z-VAD-FMK (1 uM final) 5 min before adding embelin, to inhibit caspase activation. The cells were collected for staining of active caspase-9 by CaspGLOW Red Active Caspase-9 Staining Kit (BioVision, Inc., Mountain View, Calif.) according to the manufacturer's instructions, with modification. […] The cells were resuspended in 0.3 ml Binding Buffer and analyzed by flow cytometry, using PI channel for active caspase-9 and FITC channel for apoptosis.

[3] = system: normal human prostate epithelial cells (PrEC); assay: WST-1 cell growth inhibition assay, PrEC; format: cell-based; conditions: 120 h, WST-1, five days
Method: FIG. 5 presents inhibition of cell growth by embelin in prostate cancer cells (PC-3 and LnCap) and its selectivity in normal human prostate epithelial cells (PrEC) and normal human fibroblast cell line, WI-38. 5000 cells per well in a 96-well cell culture plate were treated with various concentrations of embelin in triplicate. Five days later, the cell growth was measured by the WST-1 cell growth assay kit […] The cell growth results are expressed as the percent of control and calculated from the percent of absorbance of treated wells versus that of vehicle control.
Human prostate cancer cell lines (PC-3, LNCap, CL-1, DU-145), and normal human fibroblast cell line WI-38 were obtained from the American Type Culture Collection (ATCC), were grown and maintained in Dulbecco's modified Eagle's medium (DMEM) containing 10% FBS (Invitrogen Corporation). Normal human prostate epithelial cells (PrEC) were obtained from Clonetics (Cambrex Inc., MD) and maintained in the special medium provided by the company. […]
Cell growth was determined by the MTT-based assay using Cell Proliferation Reagent WST-1 (Roche) according to the manufacturer's instruction. […] Absorbance was measured with a plate reader at […] with correction at […]. The results are expressed as the percent of absorbance of treated wells versus that of vehicle control.

Jurkat-Vec cells = assay: Annexin V-FITC apoptosis assay, Jurkat-Vec; format: cell-based; conditions: combination with etoposide, 15 hours
Method: FIGS. 8A and 8B present (A): Dose-dependent induction of apoptosis by etoposide in Jurkat cells transfected with vector control (Jurkat-Vec) and stably transfected with XIAP (Jurkat-XIAP cells); and (B): Induction of apoptosis by etoposide and embelin alone and in combination in Jurkat-Vec and Jurkat-XIAP cells. 1×10^6 Jurkat-XIAP or Jurkat-Vec cells per well in 6-well culture plates were treated with etoposide and embelin alone, or in combination for 15 hours, then stained with Annexin V-FITC and propidium iodide for apoptosis by flow cytometry. The results are shown as percent of Annexin V-FITC positive apoptotic cells.
as §1

CCCCCCCCCCCC1=C(O)C(=O)C=C(O)C1=O [embelin]
PC-3 cells that underwent apoptosis (Annexin V-FITC positive) ([1]; 25 μM): 30% | increase in apoptosis as compared to control cells ([1]; 25 μM): approximately 3 fold | PC-3 cells that underwent apoptosis (Annexin V-FITC positive) ([1]; 50 μM): 75% | increase in apoptosis as compared to control cells ([1]; 50 μM): ~9 fold | activation of caspase-9 in normal PrEC [2]: no significant effect | activation of caspase-9 in normal PrEC ([2]; listed as Embelin): minimal effects | IC50 [3]: 20.1 µM | effect on etoposide-induced apoptosis in combination, compared to etoposide alone (Jurkat-Vec cells): did not increase
